Read-outs that look alike come from different tables or passages of the source. Some results are limits rather than exact numbers.

Common to all, as to format: cell-based
For one test, the target named is T1, human TLR9 (Homo sapiens, UniProt Q9NR96).
T1 construct: host or cells: HEK-Blue cells (HEK293-derived reporter line)
T1 sequence (Q9NR96 26-1032): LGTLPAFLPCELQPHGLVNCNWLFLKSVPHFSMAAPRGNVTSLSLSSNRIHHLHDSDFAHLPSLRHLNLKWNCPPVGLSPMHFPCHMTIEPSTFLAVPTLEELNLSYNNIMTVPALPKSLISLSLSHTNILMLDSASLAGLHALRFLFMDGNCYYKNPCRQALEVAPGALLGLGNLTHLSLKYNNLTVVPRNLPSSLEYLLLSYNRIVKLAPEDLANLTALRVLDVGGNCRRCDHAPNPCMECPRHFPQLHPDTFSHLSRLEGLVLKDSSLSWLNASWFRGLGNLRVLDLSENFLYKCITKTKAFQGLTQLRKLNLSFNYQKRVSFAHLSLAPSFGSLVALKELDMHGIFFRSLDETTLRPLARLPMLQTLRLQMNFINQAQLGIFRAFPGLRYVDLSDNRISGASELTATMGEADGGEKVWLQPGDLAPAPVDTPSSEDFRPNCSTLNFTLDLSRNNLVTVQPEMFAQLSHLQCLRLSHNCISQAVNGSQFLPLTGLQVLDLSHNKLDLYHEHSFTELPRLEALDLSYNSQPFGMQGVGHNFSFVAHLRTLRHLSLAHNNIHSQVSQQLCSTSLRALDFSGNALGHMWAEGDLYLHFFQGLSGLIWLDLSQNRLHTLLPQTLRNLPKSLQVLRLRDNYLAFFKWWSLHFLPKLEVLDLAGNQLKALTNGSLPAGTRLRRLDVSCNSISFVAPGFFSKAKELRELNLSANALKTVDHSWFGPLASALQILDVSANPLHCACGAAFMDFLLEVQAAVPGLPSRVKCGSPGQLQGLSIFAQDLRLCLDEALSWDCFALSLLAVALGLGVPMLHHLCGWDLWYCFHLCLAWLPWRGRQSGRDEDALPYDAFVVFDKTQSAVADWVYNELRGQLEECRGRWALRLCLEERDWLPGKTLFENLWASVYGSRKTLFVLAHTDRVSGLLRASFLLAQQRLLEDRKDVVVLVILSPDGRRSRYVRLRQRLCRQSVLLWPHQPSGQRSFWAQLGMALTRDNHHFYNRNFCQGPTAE
Briefly: TLR9 inhibition reporter assay (HEK-Blue cells, secreted embryonic alkaline phosphatase reporter). The following applies: HEK-Blue cells overexpressing human TLR9, stimulated with ODN2006 5 nM. The gist of the method: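 Inhibitors are tested in dose response (0.05 nM–50 μM) on HEK-Blue reporter cells expressing human TLR7, TLR8 or TLR9. After 30 min at room temperature, each line is stimulated with its own agonist (gardiquimod 7.5 μM, R848 15.9 μM or ODN2006 5 nM, final) and SEAP is measured 22 h later.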

In the next test the target is T2, human TLR7 (Homo sapiens, UniProt Q9NYK1).
T2 construct: host or cells: HEK-Blue cells (HEK293-derived reporter line)
T2 sequence (Q9NYK1 27-1049): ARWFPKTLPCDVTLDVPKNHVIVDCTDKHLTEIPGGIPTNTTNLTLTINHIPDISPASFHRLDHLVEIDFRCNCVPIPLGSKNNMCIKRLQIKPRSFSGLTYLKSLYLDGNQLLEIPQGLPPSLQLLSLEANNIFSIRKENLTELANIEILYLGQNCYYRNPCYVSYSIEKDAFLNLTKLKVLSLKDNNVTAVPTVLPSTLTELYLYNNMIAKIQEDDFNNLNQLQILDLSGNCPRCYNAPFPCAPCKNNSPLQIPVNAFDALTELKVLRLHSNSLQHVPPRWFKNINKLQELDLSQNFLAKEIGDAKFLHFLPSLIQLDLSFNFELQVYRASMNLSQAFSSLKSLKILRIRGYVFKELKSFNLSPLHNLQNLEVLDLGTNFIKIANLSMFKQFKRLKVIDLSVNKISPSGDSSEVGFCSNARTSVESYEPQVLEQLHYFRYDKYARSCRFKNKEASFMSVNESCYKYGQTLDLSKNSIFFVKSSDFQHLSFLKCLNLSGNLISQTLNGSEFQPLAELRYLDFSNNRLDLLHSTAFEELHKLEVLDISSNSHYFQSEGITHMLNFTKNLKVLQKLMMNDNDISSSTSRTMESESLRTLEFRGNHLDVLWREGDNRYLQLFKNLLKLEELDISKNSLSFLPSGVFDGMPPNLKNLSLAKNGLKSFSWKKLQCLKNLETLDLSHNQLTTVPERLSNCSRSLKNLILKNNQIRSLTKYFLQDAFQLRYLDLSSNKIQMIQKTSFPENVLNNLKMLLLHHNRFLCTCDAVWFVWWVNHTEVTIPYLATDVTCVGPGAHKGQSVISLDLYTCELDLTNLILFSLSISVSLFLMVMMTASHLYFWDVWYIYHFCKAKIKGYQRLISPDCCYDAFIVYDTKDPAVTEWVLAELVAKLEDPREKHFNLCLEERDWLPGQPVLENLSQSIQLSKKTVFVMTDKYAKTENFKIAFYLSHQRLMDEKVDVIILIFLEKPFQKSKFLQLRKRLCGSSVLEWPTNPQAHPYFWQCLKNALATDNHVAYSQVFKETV
The experiment in a line: TLR7 inhibition reporter assay (HEK-Blue cells, secreted embryonic alkaline phosphatase reporter). To be noted: HEK-Blue cells overexpressing human TLR7, stimulated with gardiquimod 7.5 μM; read-out: TLR 7 IC50. As to the method: (§1) TLR7/8/9 Inhibition Reporter Assays
(§2) HEK-Blue™-cells (Invivogen) overexpressing human TLR7, TLR8 or TLR9 receptors were used for screening inhibitors of these receptors using an inducible SLAP (secreted embryonic alkaline phosphatase) reporter gene under the control of the […] minimal promoter fused to five NF-κB and AP-1-binding sites. Briefly, cells are seeded into Greiner 384 well plates (15000 cells per well for TLR7, 20,000 for TLR8 and 25,000 for TLR9) and then treated with test compounds in DMSO to yield a final dose response concentration range of 0.05 nM-50 μM. After a 30 minute compound pre-treatment at room temperature, the cells are then stimulated with a TLR7 ligand (gardiquimod at a final concentration of 7.5 μM), TLR8 ligand (R848 at a final concentration of 15.9 μM) or TLR9 ligand (ODN2006 at a final concentration of 5 nM) to activate NF-κB and AP-1 which induce the production of SLAP. After a 22 hour incubation at 37° C., […], SLAP levels are determined with the addition of HEK-Blue™ Detection reagent (Invivogen), a cell culture medium that allows for detection of SLAP, according to manufacturer's specifications. The percent inhibition is determined as the […] in the HEK-Blue signal present in wells treated with agonist plus DMSO alone compared to wells treated with a known inhibitor.

A further test addresses T3, human TLR8 (Homo sapiens, UniProt Q9NR97).
T3 construct: host or cells: HEK-Blue cells (HEK293-derived reporter line)
T3 sequence (Q9NR97 27-1041): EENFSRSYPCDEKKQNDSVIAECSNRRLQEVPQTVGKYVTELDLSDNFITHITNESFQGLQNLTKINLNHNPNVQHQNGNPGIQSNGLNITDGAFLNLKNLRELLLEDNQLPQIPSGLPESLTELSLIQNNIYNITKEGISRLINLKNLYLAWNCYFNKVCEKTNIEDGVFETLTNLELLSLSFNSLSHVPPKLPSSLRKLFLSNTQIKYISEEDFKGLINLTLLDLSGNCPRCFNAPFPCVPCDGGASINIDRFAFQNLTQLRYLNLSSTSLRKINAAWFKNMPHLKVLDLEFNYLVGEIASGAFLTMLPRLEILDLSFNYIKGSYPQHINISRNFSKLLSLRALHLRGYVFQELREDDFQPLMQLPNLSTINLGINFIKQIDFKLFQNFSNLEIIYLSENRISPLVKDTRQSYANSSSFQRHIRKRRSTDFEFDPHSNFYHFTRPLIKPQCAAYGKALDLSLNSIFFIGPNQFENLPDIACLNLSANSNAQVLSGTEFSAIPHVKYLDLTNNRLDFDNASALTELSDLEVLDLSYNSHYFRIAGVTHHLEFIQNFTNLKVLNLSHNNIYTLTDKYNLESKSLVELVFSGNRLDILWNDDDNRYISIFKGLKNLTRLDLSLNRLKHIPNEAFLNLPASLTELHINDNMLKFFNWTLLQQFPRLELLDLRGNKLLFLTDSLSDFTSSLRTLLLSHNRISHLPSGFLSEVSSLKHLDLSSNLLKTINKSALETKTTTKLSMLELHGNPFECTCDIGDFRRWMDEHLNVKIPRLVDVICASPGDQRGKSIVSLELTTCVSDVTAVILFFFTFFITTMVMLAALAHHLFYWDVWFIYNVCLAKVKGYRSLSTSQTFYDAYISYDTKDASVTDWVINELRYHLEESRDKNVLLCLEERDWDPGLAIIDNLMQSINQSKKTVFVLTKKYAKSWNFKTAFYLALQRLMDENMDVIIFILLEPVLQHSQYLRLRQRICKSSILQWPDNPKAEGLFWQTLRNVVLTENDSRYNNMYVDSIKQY
Briefly: TLR8 inhibition reporter assay (HEK-Blue cells, secreted embryonic alkaline phosphatase reporter). To be noted: HEK-Blue cells overexpressing human TLR8, stimulated with R848 15.9 μM; read-out: TLR 8 IC50. As to the method:
as §1, §2

Where [1] appears, read: 22 hour incubation, reporter readout.

Turning to `COc1ccc(-c2nc3c(C)cc(C4C[C@H]5CC[C@@H](C4)N5C4CCN(C(C)C)CC4)cc3n2C)cc1OC` (mixture of isomers) [Example 21, 2-(3,4-dimethoxyphenyl)-6-(8-(1-isopropylpiperidin-4-yl)-8-azabicyclo[3.2.1]octan-3-yl)-1,4-dimethyl-1H-benzo[d]imidazole], the IC50 on human TLR9 (setting [1]) was 24 nM; on human TLR7, 2600 nM; at human TLR8, over 50000 nM.

On to `CCn1c(-c2ccc(OC)c(OC)c2)nc2ccc(C3CCN(C4CCN(C(C)C)CC4)CC3)cc21` (single isomer, unassigned) [Example 8, 2-(3,4-dimethoxyphenyl)-1-ethyl-6-(1′-isopropyl-[1,4′-bipiperidin]-4-yl)-1H-benzo[d]imidazole], for which the IC50 at human TLR9 (setting [1]) is 210 nM; at human TLR7, 2500 nM; on human TLR8, over 50000 nM.

Take `CCn1c(-c2ccc(OC)c(OC)c2)nc2cc(C3CCN(C4CCN(C(C)C)CC4)CC3)ccc21` (single isomer, unassigned) [Example 9, 2-(3,4-dimethoxyphenyl)-1-ethyl-5-(1′-isopropyl-[1,4′-bipiperidin]-4-yl)-1H-benzo[d]imidazole]: the IC50 at human TLR9 (setting [1]) is 250 nM; on human TLR9 (read-out: TLR 9 IC50), 249 nM; at human TLR7 it was 2700 nM; at human TLR8, 1300 nM.

Consider `COc1ccc(-c2nc3c(C)cc(C4CCN(C5CC6CCC(C5)N6CC(C)C)CC4)cc3n2C)cc1OC` (single isomer, unassigned) [Example 17, 2-(3,4-dimethoxyphenyl)-6-(1-(8-isobutyl-8-azabicyclo[3.2.1]octan-3-yl)piperidin-4-yl)-1,4-dimethyl-1H-benzo[d]imidazole], for which the figures for the IC50 against human TLR9 (setting [1]), at human TLR7 and at human TLR8 were 25 nM, 6500 nM and over 50000 nM, respectively.

With `COc1ccc(-c2nc3c(C)cc(C4CCN(C5CC6CCC(C5)N6CC(C)C)CC4)cc3n2C)cc1OC` (single isomer, unassigned) [Example 18, 2-(3,4-dimethoxyphenyl)-6-(1-(8-isobutyl-8-azabicyclo[3.2.1]octan-3-yl)piperidin-4-yl)-1,4-dimethyl-1H-benzo[d]imidazole], the IC50 against human TLR9 (setting [1]) was 29 nM; on human TLR7, 7700 nM; on human TLR8, over 50000 nM.

For the compound `COc1ccc(-c2nc3c(C)cc(C4CCN(C5CC6CCC(C5)N6CC(C)C)CC4)cc3[nH]2)cc1OC` (single isomer, unassigned) [Example 19, 2-(3,4-dimethoxyphenyl)-6-(1-(8-isobutyl-8-azabicyclo[3.2.1]octan-3-yl)piperidin-4-yl)-4-methyl-1H-benzo[d]imidazole], the 50% inhibitory concentration (IC50) against human TLR9 (setting [1]) was 28 nM; at human TLR7, 2500 nM; at human TLR8, over 50000 nM.

With `COc1ccc(-c2nc3c(C)cc(C4CCN(C5CC6CCC(C5)N6CC(C)C)CC4)cc3[nH]2)cc1OC` (single isomer, unassigned) [Example 20, 2-(3,4-dimethoxyphenyl)-6-(1-(8-isobutyl-8-azabicyclo[3.2.1]octan-3-yl)piperidin-4-yl)-4-methyl-1H-benzo[d]imidazole], the IC50 was 69 nM against human TLR9 (setting [1]), 4100 nM on human TLR7 and over 50000 nM at human TLR8.

Take `Cc1cc(C2CCN(C3CC4CCC(C3)N4C(C)C)CC2)cc2c1nc(-c1ccc(S(C)(=O)=O)cc1)n2C` (single isomer, unassigned) [Example 84, 6-(1-(8-isopropyl-8-azabicyclo[3.2.1]octan-3-yl)piperidin-4-yl)-1,4-dimethyl-2-(4-(methylsulfonyl)phenyl)-1H-benzo[d]imidazole]: the results for the IC50 against human TLR9 (setting [1]), at human TLR7 and on human TLR8 were 72 nM, 18600 nM and over 25000 nM, respectively.

The values are drawn from US12492188B2, “1H-benzo[D]imidazole derivatives as TLR9 inhibitors for the treatment of fibrosis” (BRISTOL-MYERS SQUIBB COMPANY, priority 2020, dated 2025).
